Here are results for two compounds from PMC9697349, “Mouse Pharmacokinetics and In Vitro Metabolism of SH-11037 and SH-11008, Synthetic Homoisoflavonoids for Retinal Neovascularization” (Pharmaceutics, 2022).

For data set [1], the system named is human microvascular retinal endothelial cell proliferation. Details: method as in PMID 26035340. The conditions noted are these: less potent than SH-11037; cited from earlier work.
The nature of data set [2]: Mouse pharmacokinetics, single i.v. dose. The conditions noted are these: plasma, iv, single i.v. dose of SH-11008 3 mg/kg, male ICR mice. Type of data set: in vivo. The procedure: Pharmacokinetic studies were performed with male ICR mice (8 weeks old, 30~35 g) purchased from Koatech Co. (Kyunggi, Korea) as reported previously. Test compounds were dissolved at 1 mg/mL in DMA/Tween 80/20% aqueous HPβCD (10/10/80 vol%) to prepare the dosing solutions. SH-11037 was administered by oral (p.o.) gavage at a dose of 10 mg/kg and a dose volume of 10 mL/kg (equimolar to 6 mg/kg of SH-11008) or intravenously (i.v.) via tail vein injection at a dose of 5 mg/kg and a dose volume of 5 mL/kg (equimolar to 3 mg/kg of SH-11008), respectively. SH-11008 was administered p.o. at a dose of 6 mg/kg and a dose volume of 6 mL/kg or i.v. at a dose of 3 mg/kg and a dose volume of 3 mL/kg, respectively. Plasma samples were analyzed as described below in Section 2.6.1.
Calibration standards and quality control (QC) samples were prepared by spiking 15 μL of blank plasma with 5 μL of analyte working solution prepared in 50 vol% aqueous CH3CN. For sample preparation, 15 μL aliquots of plasma samples combined with 5 μL of 50 vol% aqueous CH3CN were mixed with 3 volumes of ice-cold CH3CN containing glipizide (500 ng/mL) as the IS. The mixture was vortexed, sonicated, and centrifuged at 3000× g for 20 min. The supernatant was then mixed with the same volume of HPLC grade water before analysis. Sample analyses were conducted using Agilent 1290 Infinity HPLC system coupled to Agilent 6460 Triple Quadrupole LC-MS/MS system equipped with Jet Stream ESI ion source (Agilent Technologies Korea, Seoul, Korea). Chromatographic separation was performed on an Agilent Eclipse Plus C18 column (2.1 × 100 mm, 3.5 μm) with a Phenomenex Security Guard C18 guard column (4 × 20 mm) maintained at 40 °C. The mobile phase consisted of 0.1% formic acid in deionized water (A) and 0.1% formic acid in CH3CN (B): 0~2 min 5% B, 2~3 min to 95% B, and 3~6.5 min 95% B. Total run time including a 3 min equilibration time was 9.5 min. The flow rate was 0.45 mL/min. The injection volume was 5 µL. Detection of the analyte ions was performed in the positive multiple reaction monitoring (MRM) mode, with the following mass transitions (precursor > product): m/z 644 > 588, 397 > 367, and 446 > 321 for SH-11037, SH-11008 and IS, respectively. […] The lower limit of quantitation of SH-11037 and SH-11008 were 0.24 and 0.48 ng/mL, respectively, with a signal-to-noise ratio based on root mean square noise > 10. The calibration curves were linear in the range of 0.24–500 ng/mL (r^2 > 0.997) for SH-11037 and 0.48–500 ng/mL (r^2 > 0.998) for SH-11008, respectively. The precision and accuracy of the analytical method were evaluated with the QC samples prepared in triplicate at 5, 250, and 400 ng/mL for both of SH-11037 and SH-11008: the coefficient of variation (%CV) and the relative error (%RE) were in the ranges of −21.23~5.72% and 1.47~12.30% for SH-11037 and −22.85~4.96% and 1.2~13.8% for SH-11008, respectively. Extraction recovery, matrix effect, and process efficiency were in the ranges of 91.8~107.1%, 86.3~99.9%, and 88.8~100.8% for SH-11037 and 88.9~103.8%, 88.9~100.0%, and 80.0~97.4% for SH-11008, respectively. Quantitative analysis data were obtained with Agilent Mass Hunter Quantitative Analysis QQQ (ver. B.05.00) software.
Pharmacokinetic parameters were calculated by noncompartmental analysis of plasma concentration versus time profiles using PKSolver. The scaling factors of mice and human, half-life (t1/2), intrinsic clearance (CLint), hepatic clearance (CLH), and hepatic extraction ratio (EH) were from the in vitro studies as described previously. […] The fraction of parent drug converted to the metabolite (fm) was calculated as follows:fm (%) = (AUC(m) × CL(m))/D × MWparent/MWmetabolite × 100,(1) where D is dose of the parent drug, AUC(m) is area under the curve for the metabolite after a dose of parent drug, CL(m) is CL of metabolite, and MW is molecular weight.

The nature of data set [3]: Stability of SH-11037 in mouse plasma. The conditions noted are these: ICR, pH 7.4, SH-11037 1 µM, 37 °C, read-out: half-life (t1/2) of hydrolysis to SH-11008. The format is in vitro ADME. The procedure:
SH-11037 (1 μM) was incubated in triplicate in 0.1 M phosphate buffer (pH 7.4) or in mouse, dog, and human plasma to investigate its stability. SH-11037 (40 μM) in 50 vol% aqueous CH3CN was mixed with 0.1 M phosphate buffer (pH 7.4) or plasma diluted 3-fold with 0.1 M phosphate buffer (pH 7.4) to a final volume of 160 μL and a final concentration of 1 μM. The resulting solutions were then incubated at 37 °C in a shaking water bath. The incubations were terminated at selected times by adding 160 µL of ice-cold CH3CN containing glipizide (500 ng/mL) as the internal standard (IS). The resulting mixture was vortexed, sonicated, and centrifuged at 3000× g for 20 min. Aliquots of the supernatant were subjected to LC-MS/MS analysis described below in Section 2.6.2.
The LC-MS/MS system consisted of Agilent 1290 Infinity HPLC system and Agilent 6530 Accurate-Mass Quadrupole Time-of-Flight (Q-TOF) mass spectrometer equipped with dual AJS ESI ion source (Agilent Technologies Korea, Seoul, Korea). Chromatographic separation was performed on an Agilent Eclipse Plus C18 column (2.1 × 100 mm, 3.5 μm) with a Phenomenex Security Guard C18 guard column (4 × 20 mm) maintained at 40 °C. The mobile phase consisted of 0.1% formic acid in deionized water (A) and 0.1% formic acid in CH3CN (B): 0~2 min 5% B, 2~7 min to 95% B, and 7~10 min 95% B. Total run time including a 5 min equilibration time was 15 min. […]

The Cmax is the highest concentration seen after dosing. The term Tmax denotes the time from dosing to the highest level. The clearance is a measure of how efficiently the substance is removed, as volume per time. For `COc1ccc(CC2COc3cc(OC)c(OC)c(OC)c3C2=O)cc1O` (stereo not drawn) [SH-11008], the “inhibitory activity on cell proliferation” value in data set [1] is on record as “good inhibitory activity”. Besides, in data set [2], the Cmax stood at 770 ± 1160 ng/mL, the Tmax was 5 min and the clearance worked out at 210 ± 17.2 mL/min/kg. In data set [2] (n = 3, read-out: t1/2 of SH-11008), the half-life worked out at 3.5 ± 0.5 min. For the same compound, the AUC(0-inf) in data set [2] (read-out: AUCinf of SH-11008 (converted)) is 239 ng·h/mL. Besides, the AUC(0-t) in data set [2] (read-out: AUClast of SH-11008 (converted)) is 239 ng·h/mL. Besides, the Vd in data set [2] (read-out: Vss) turned out to be 0.5 ± 0.1 L/kg.
As for `COc1ccc(CC2COc3cc(OC)c(OC)c(OC)c3C2=O)cc1OC(=O)[C@H](Cc1ccccc1)NC(=O)OC(C)(C)C` (stereo partly drawn) [SH-11037], the half-life at 1 µM in data set [3] turned out to be 0.018 min.
